Source: patent US20220168392A1 (priority 2019, published 2022)
Square brackets hold non-standard residues; d marks the D form. * marks the point of attachment. 2Nal = N[C@@H](Cc1ccc2ccccc2c1)C(=O)O; Propionyl = CCC(=O)*; Sar = CNCC(=O)O

What was measured:
[1] = tested on: Mouse; experiment: Maximum platelet elevation relative to baseline in normal healthy mice, single escalating doses; format: in vivo; set-up: key to pharmacodynamics (PD) effect class of the dose (beneficial effects on survival): **: large pharmacodynamics (PD) effect; *: modest effect; conditions: for Mouse Max Platelet Ratio: 3DP03-Piedmont-01
Source text: (§1) The ratio of the maximum platelet counts to the baseline platelet counts following single escalating doses of RWJ-800088 to mice, rats, dogs, rhesus monkeys and human healthy volunteers is shown in Table 5. The dose required to achieve a 2-3.5-fold elevation in humans is ˜100-fold lower compared to mice, ˜1,000-fold lower compared to rats and >10,000-fold lower compared to canines and NHPs. […] The species differences in potency has been described for other TPO mimetics in the literature and is attributed to differences in receptor affinity (Erickson-Miller C L, et al. Discovery and characterization of a selective, nonpeptidyl thrombopoietin receptor agonist. Exp. Hematol. 2005; 33:85-93). […] It is discovered that the dose of RWJ-800088 that produces a survival benefit and protects against vascular and organ injury is the dose that produces a 2-4 fold elevation of platelets (Table 6).

[2] = tested on: Rat; experiment: Maximum platelet elevation relative to baseline in normal healthy rats, single escalating doses; format: in vivo; set-up: key to pharmacodynamics (PD) effect class of the dose (beneficial effects on survival): **: large pharmacodynamics (PD) effect; *: modest effect; conditions: for Rat Max Platelet Ratio: TOX6984
Source text: as §1

[3] = tested on: healthy rhesus monkeys; experiment: Maximum platelet count to baseline in healthy rhesus monkeys, escalating doses; format: in vivo, rhesus monkey; set-up: key to pharmacodynamics (PD) effect class of the dose (beneficial effects on survival): **: large pharmacodynamics (PD) effect; *: modest effect
Method: (§2) A pilot PK/PD study was performed to evaluate the efficacy of RWJ-800088 in rhesus monkeys (Study No. 2016-2693—CiToxLAB North America). Rhesus monkeys (n=10/group, 5 male/5 female) were treated with vehicle or RWJ-800088 (a single dose of 30 mg/kg RWJ-800088) administered 24 hours post TBI gamma radiation (600 cGY). […] The ratio of the maximum platelet count to baseline following escalating doses of RWJ-800088 to healthy rhesus monkeys is as follows: 0.97±0.06× at 0.5 mg/kg, 1.08±0.15× at 2 mg/kg, 1.98±0.16× at 10 mg/kg, 2.9±0.03× at 20 mg/kg, and 3.83±0.11× at 40 mg/kg).
as §1

[4] = tested on: male BALB/c mice treated with carboplatin; experiment: Carboplatin induced thrombocytopenia, anemia, mortality and brain microangiopathic events in mice; format: in vivo, mouse
Method: Materials and Methods: Increasing doses of carboplatin (i.e., 60, 70, or 80 mg/kg, i.p.) were administered on 2 consecutive days (Day 1 and Day 0) to male BALB/c mice (N=3 per group). Approximately 1 hour after carboplatin treatment on Day 0, sets of mice were treated with vehicle or RWJ-800088 (100 μg/kg, i.v.).
On Day 15, surviving mice were euthanized and blood samples were collected for the assessment of platelet and red blood cell (RBC) parameters. The brains of the mice were also isolated and preserved in 10% buffered formalin for immunohistochemical staining using anti-fibrinogen antibodies. Control mice were processed in a similar manner.

[5] = tested on: CD2F1 mice exposed to TBI (7 Gy); experiment: Circulating biomarkers (EPO, FLT3 ligand, MMP9, VCAM1, E-Selectin, sP-Selectin) after 7 Gy TBI; format: in vivo, mouse
Method: Harvesting blood and tissues for various molecular assays: RWJ-800088 (0.3 mg/kg) or saline (n=6 per group) was administered SC 24 hour prior to irradiation. The experimental animals received either 0 or 7 Gy radiation (non-lethal dose) in the AFRRI Co-60 gamma radiation facility. […] The femurs and sterna were then collected and processed as described below.

[6] = tested on: rhesus monkeys after TBI gamma radiation (600 cGY); experiment: Rhesus monkey whole body irradiation pilot PK/PD study; format: in vivo
Method: as §2

[7] = tested on: mice surviving TBI; experiment: Long-term blood cells, bone marrow and kidney staining in TBI survivors (Example 5); format: in vivo, mouse
Method: Methods: During the above Experiment 4, four studies were performed as follows:
Study A: A subset of the animals were sacrificed at 1, 6, and 12 months. Blood was collected and blood cells counted, and femurs were collected, bone marrow isolated and cultured to analyze for colony forming units;
Study B: A subset of the animals were sacrificed at 1 and 6 months. Sterna were collected from these animals, fixed, sectioned, stained with H&E (Hematoxylin and eosin), and megakaryocytes counted;
Study C: A subset of the animals were sacrificed at 1 and 6 months. Kidneys were collected from these animals, fixed, sectioned, stained with β-Catenin or E-cadherin: and
Study D: A subset of the animals were sacrificed at 1 and 6 months. Kidneys were collected from these animals, fixed, sectioned, stained with β-galactosidase, a marker of senescence.

[8] = carboplatin 70 mg/kg, RWJ-800088 100 μg/kg i.v., Day 15
[9] = 1 and 6 months post TBI (FIG. 25)

Substance: methoxypolyethyleneglycol20000-propionyl-L-Isoleucyl-L-Glutamyl-Glycyl-L-Prolyl-L-Threonyl-L-Leucyl-L-Arginyl-L-Glutaminyl-L-2-Naphthylalanyl-L-Leucyl-L-Alanyl-L-Alanyl-L-Arginyl-Sarcosyl-Ne-(methoxypolyethyleneglycol20000-propionyl-L-Isoleucyl-L-Glutamyl-Glycyl-L-Prolyl-L-Threonyl-L-Leucyl-L-Arginyl-L-Glutaminyl-L-2-Naphthylalanyl-L-Leucyl-L-Alanyl-L-Alanyl-L-Arginyl-Sarcosyl-)-Lysinamide ({mPEG 20 kDa-Propionyl}-IEGPTLRQ[2Nal]LAAR[Sar]K-NH2; also: dimer: second identical mPEG-propionyl chain on Lys Nε of C-terminal lysinamide) [RWJ-800088]
- Mouse Max Platelet Ratio ([1]; dose 10 μg/kg): 0.9 ± 0.6
- Mouse Max Platelet Ratio ([1]; dose 30 μg/kg): 1.8 ± 0.4
- Mouse Max Platelet Ratio ([1]; dose 100 μg/kg): 2.5 ± 1.1
- Mouse Max Platelet Ratio ([1]; dose 300 μg/kg): 3.9 ± 0.9
- Mouse Max Platelet Ratio ([1]; dose 1000 μg/kg): 4.3 ± 0.5
- Mouse Max Platelet Ratio ([1]; dose 3000 μg/kg): 3.4 ± 1
- Dose for 2.0-4x Platelet Elevation in Healthy Subjects ([1]; Mice): ≥0.1 mg/kg
- pharmacodynamics (PD) effect class of the dose (beneficial effects on survival) ([1]; Mouse, dose 100 μg/kg): **
- Average of the Maximum Platelet Elevation/Baseline Platelet Counts ([1]; Mouse, dose 300 μg/kg): 3.9
- pharmacodynamics (PD) effect class of the dose (beneficial effects on survival) ([1]; Mouse, dose 300 μg/kg): **
- pharmacodynamics (PD) effect class of the dose (beneficial effects on survival) ([1]; Mouse, dose 1000 μg/kg): **
- pharmacodynamics (PD) effect class of the dose (beneficial effects on survival) ([1]; Mouse, dose 3000 μg/kg): **
- Platelet Elevation in Non-Irradiated Animals (fold increase over baseline) ([1]; TPOm dose 0.1 mg/kg): 2.50 fold increase over baseline
- Platelet Elevation in Non-Irradiated Animals (fold increase over baseline) ([1]; TPOm dose 0.3 mg/kg): 3.90 fold increase over baseline
- Platelet Elevation in Non-Irradiated Animals (fold increase over baseline) ([1]; TPOm dose 1 mg/kg): 4.30 fold increase over baseline
- Platelet Elevation in Non-Irradiated Animals (fold increase over baseline) ([1]; TPOm dose 2 mg/kg, imputed as mean of the 1 mg/kg and 3 mg/kg cohorts): 3.85 fold increase over baseline
- Platelet Elevation in Non-Irradiated Animals (fold increase over baseline) ([1]; TPOm dose 3 mg/kg): 3.40 fold increase over baseline
- Average of the Maximum Platelet Elevation/Baseline Platelet Counts ([2]; Rat, dose 3000 μg/kg): 3.1
- pharmacodynamics (PD) effect class of the dose (beneficial effects on survival) ([2]; Rat, dose 3000 μg/kg): **
- Dose for 2.0-4x Platelet Elevation in Healthy Subjects ([2]; Rats): ≥3 mg/kg
- Rat Max Platelet Ratio ([2]; dose 100 μg/kg): 1.0 ± 0.2
- Rat Max Platelet Ratio ([2]; dose 300 μg/kg): 1.7 ± 0.3
- Rat Max Platelet Ratio ([2]; dose 3000 μg/kg): 3.2 ± 0.6
- ratio of the maximum platelet count to baseline ([3]; 0.5 mg/kg): 0.97±0.06 ×
- ratio of the maximum platelet count to baseline ([3]; 2 mg/kg): 1.08±0.15 ×
- ratio of the maximum platelet count to baseline ([3]; 10 mg/kg): 1.98±0.16 ×
- ratio of the maximum platelet count to baseline ([3]; 20 mg/kg): 2.9±0.03 ×
- ratio of the maximum platelet count to baseline ([3]; 40 mg/kg): 3.83±0.11 ×
- NHP Max Platelet Ratio ([3]; CiToxLAB North America Study No. 2016-2693, dose 30000 μg/kg): 3.25
- Average of the Maximum Platelet Elevation/Baseline Platelet Counts ([3]; Monkey, dose 40000 μg/kg): 3.83
- pharmacodynamics (PD) effect class of the dose (beneficial effects on survival) ([3]; NHP, dose 30000 μg/kg): *
- Dose for 2.0-4x Platelet Elevation in Healthy Subjects ([3]; Rhesus): ≥30 mg/kg
- NHP Max Platelet Ratio ([3]; TOX9795/B201016-K013, dose 500 μg/kg): 0.9 ± 0.1
- NHP Max Platelet Ratio ([3]; TOX9795/B201016-K013, dose 2000 μg/kg): 1.1 ± 0.1
- NHP Max Platelet Ratio ([3]; TOX9795/B201016-K013, dose 10000 μg/kg): 2.9 ± 0.0
- NHP Max Platelet Ratio ([3]; TOX9795/B201016-K013, dose 40000 μg/kg): 3.8 ± 0.1
- Effects ([4]; Mice, carboplatin chemotherapy, whole wrapped cell: Protection against thrombocytopenia, anemia and vascular hemorrhage in the brain): Protection against
- fibrinogen staining of brain sections (immunohistochemistry) [4, 8]: appeared normal with the intensity of fibrinogen staining similar to vessels in the brains of control mice
- signs of hemorrhage or edema in brain [4, 8]: none of the brains isolated from mice co-treated with RWJ-800088 exhibited signs of hemorrhage or edema
- platelet and RBC counts on Day 15 ([4]; carboplatin 60, 70 or 80 mg/kg i.p. on 2 consecutive days, RWJ-800088 100 μg/kg i.v. ~1 hour after carboplatin on Day 0): prevented the observed decreases in platelet and RBC counts
- mortality / euthanization ([4]; carboplatin 60-80 mg/kg i.p. x2 days, RWJ-800088 100 μg/kg i.v.): none of the mice treated with RWJ-800088 died or required euthanization
- circulating levels of erythropoietin (EPO) vs vehicle treated irradiated mice ([5]; 7 Gy, 0.3 mg/kg 24 h pre-TBI (FIG. 5A)): significantly (p<0.0001) lower
- circulating levels of FLT3 ligand vs vehicle treated irradiated mice ([5]; 7 Gy, 0.3 mg/kg 24 h pre-TBI (FIG. 5B)): significantly (p<0.0001) lower
- circulating levels of sP-Selectin vs vehicle ([5]; days 2, 3, 7, and 15 post-irradiation): statistically significant increases (p<0.0001)
- circulating levels of E-Selectin vs vehicle ([5]; days 3, 7 15 and 30 post-irradiation): statistically significant increases (p<0.0001)
- circulating levels of MMP-9 vs vehicle ([5]; days 7 and 15 post-irradiation): statistically significant increases (p<0.0001)
- circulating levels of VCAM-1 vs vehicle ([5]; days 15 and 30 post-irradiation): statistically significant increases (p<0.0001)
- Effects ([6]; Rhesus, whole body irradiation, 30 mg/kg, whole wrapped cell: Enhanced survival, mitigation of thrombocytopenia, anemia): Enhanced survival,
- decrease in RBC, reticulocytes and WBC vs irradiated vehicle ([6]; irradiated animals, 30 mg/kg 24 hours post-TBI (FIG. 18B-D)): less severe decrease
- platelet counts, nadir and recovery ([6]; sham or irradiated animals, 30 mg/kg 24 hours post-TBI (FIG. 18A)): beneficial effects on platelet counts
- survival (animals surviving) ([6]; single dose 30 mg/kg 24 hours post TBI 600 cGY, n=10/group (FIG. 17)): 9/10
- E-cadherin expression in kidney vs vehicle [7, 9]: higher
- β-Catenin expression in kidney [7, 9]: decreases β-Catenin expression
- β-galactosidase staining in kidney (marker of senescence) ([7]; 1 and 6 months post TBI (FIG. 26, 27)): protects from cellular senescence
- megakaryocytes in sterna vs vehicle (saline) ([7]; 1 and 6 months post irradiation): significantly higher numbers of megakaryocytes
- blood cell types (white blood cells, lymphocytes, neutrophils, platelets, red blood cells) vs vehicle ([7]; 6 months and 12 months post TBI): increased in number
- colony forming units in isolated bone marrow vs vehicle ([7]; 6 months post TBI (FIG. 23)): more colony forming units
